Laboratory results taken from patent US6787651B2, “Substituted indoles, pharmaceutical compounds containing such indoles and their use as PPAR-γ binding agents” (SmithKline Beecham Corporation, priority 2000, dated 2004).

Experiments:
[1] = molecular target: T1, PPARγ ligand binding domain (LBD) (amino acids 195-475) (Homo sapiens, UniProt P37231); assay: PPAR-γ binding assay (spin plate / gel filtration binding assay, displacement of [3H]BRL 49653); details: read-out: IC50 range in the PPAR-γ Binding Assay
T1 construct: polyHis; made in house; host or cells: Escherichia coli
T1 sequence (P37231 195-475 isoform P37231-2): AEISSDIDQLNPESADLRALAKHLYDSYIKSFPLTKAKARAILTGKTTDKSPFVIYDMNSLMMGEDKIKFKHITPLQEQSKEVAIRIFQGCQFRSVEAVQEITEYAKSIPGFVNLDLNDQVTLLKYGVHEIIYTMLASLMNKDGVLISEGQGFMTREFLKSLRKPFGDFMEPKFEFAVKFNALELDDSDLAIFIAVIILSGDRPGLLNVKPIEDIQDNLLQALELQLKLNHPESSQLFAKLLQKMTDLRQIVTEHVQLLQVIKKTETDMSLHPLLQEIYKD
Method: The activity of a given compound in binding to PPAR-γ can be assayed routinely according to procedures known in the art. […] The PPAR-γ binding assay described below was used to determine the PPAR-γ binding activities of the compounds of the invention.
Compounds were tested for their ability to bind to PPARγ using a spin plate assay (gel filtration binding assay). […] Each compound was tested in triplicate. […] The plates were centrifuged (Beckman GS-6R) at 2500 rpm for 5 minutes, 170 μl Scitisafe® scintillation fluid (Fisher) was added to each well, the plates were sealed, and after 1 hour, were counted in a Wallac MicroBeta counter. The amount of nonspecific binding, as assessed by control wells containing 10 μM of the corresponding unlabeled ligand, was subtracted from each data point. For each compound tested, the data was averaged and plots of ligand concentration versus CPM of radioligand bound were constructed. Apparent IC50 values were estimated from nonlinear least-squares fit of the data assuming simple competitive binding.

Row | SMILES | IC50 [1] [nM] | melting point
1 | COc1cccc(Cn2c(C(=O)O)c(-c3ccc(C(C)(C)C)cc3)c3cc(C4CCCC4)ccc32)c1 [Example 273] | 0.1 to 9.99 | 192 to 193 °C
2 | COc1cccc(Cn2c(C(=O)O)c(-c3ccc(C(C)(C)C)cc3)c3cc(N(C)C(=O)C4CC4)ccc32)c1 [Example 274] | 10 to 10000 | 219 to 222 °C
3 | COc1cccc(Cn2c(C(=O)O)c(-c3ccc(C(C)(C)C)cc3)c3cc4c(cc32)OCO4)c1 [Example 277] | 0.1 to 9.99 | 179.1 to 179.7 °C
4 | CC(C)c1cccc(-c2c(C(=O)O)n(Cc3cccc(OCC4CC4)c3)c3ccccc23)c1 [Example 284] | 0.1 to 9.99 | 204 °C
5 | CCOc1ccc(-c2c(C(=O)O)n(Cc3ccc(F)cc3)c3c(N(C)C(=O)C4CC4)cccc23)cc1 [Example 286] | 10 to 10000 | 128 °C
6 | CC(=O)c1cccc(-c2c(C(=O)O)n(Cc3cccc(OCC4CC4)c3)c3ccccc23)c1 [Example 290] | 0.1 to 9.99 | 103 °C
7 | COc1cccc(Cn2c(C(=O)O)c(-c3ccc(C(C)(C)C)cc3)c3cccc(NC(=O)NC4CC4)c32)c1 [Example 291] | 10 to 10000 | 168 °C (dec.)
8 | COc1cccc(Cn2c(C(=O)O)c(-c3ccc(C(C)(C)C)cc3)c3cccc(NC(=O)C4CC4)c32)c1 [Example 292] | 10 to 10000 | 151 °C
9 | COc1cccc(Cn2c(C(=O)O)c(-c3ccc(C(C)(C)C)cc3)c3cccc(N(C)C(=O)N(C)C4CC4)c32)c1 [Example 293] | 10 to 10000 | 112 to 115 °C (dec.)
10 | COc1cccc(Cn2c(C(=O)O)c(-c3ccc(C(C)(C)C)cc3)c3c(OCC4CC4)cccc32)c1 [Example 296] | 10 to 10000 | 162 °C
11 | CC(=O)Nc1cccc(-c2c(C(=O)O)n(Cc3cccc(OCC4CC4)c3)c3ccccc23)c1 [Example 298] | 10 to 10000 | 122 to 123 °C
12 | COc1cccc(Cn2c(C(=O)O)c3c4cc(ccc42)OCCCCCCOc2cccc-3c2)c1 [Example 300] | 10 to 10000 | 79 to 80 °C
13 | COc1ccc(-c2c(C(=O)O)n(Cc3cccc(OC)c3)c3c(N(C)C(=O)C4CC4)cccc23)cc1 [Example 303] | 10 to 10000 | 98 °C (dec.)
14 | COc1cccc(Cn2c(C(=O)O)c(-c3cccc(NC(=O)C4CCCC4)c3)c3ccccc32)c1 [Example 327] | 10 to 10000 | 133 °C (dec.)
15 | COc1cccc(Cn2c(C(=O)O)c(-c3ccc(C(C)(C)C)cc3)c3cc(NCC4CC4)ccc32)c1 [Example 335] | 0.1 to 9.99 | 180 to 181 °C
16 | O=C(O)c1c(-c2cccc(OCC3CC3)c2)c2ccccc2n1Cc1ccc(F)cc1 [Example 339, 3-[3-(Cyclopropylmethoxy)phenyl]-1-[(4-fluorophenyl)methyl]indole-2-carboxylic Acid] | 0.1 to 9.99 | 200 to 202 °C
17 | COc1cccc(Cn2c(C(=O)O)c(-c3ncc(C(C)=O)s3)c3ccccc32)c1 [Example 343] | 0.1 to 9.99 | 218 °C (dec.)
18 | CCOc1ccc(-c2c(C(=O)O)n(Cc3ccc(F)cc3)c3ccc(COCC4CC4)cc23)cc1 [Example 347, 5-[(Cyclopropylmethoxy)methyl]-3-(4-ethoxyphenyl)-1-(4-fluorobenzyl)-1H-indole-2-carboxylic acid] | 0.1 to 9.99 | 171 to 173 °C

More lines, now with the values ahead:

Row | IC50 [1] [nM] | melting point | SMILES
19 | 10 to 10000 | 166 to 168 °C | COc1ccc(-c2c(C(=O)O)n(CS(=O)(=O)c3ccccc3)c3ccccc23)cc1 [Example 282]
20 | 0.1 to 9.99 | 168 °C | COc1ccc(-c2c(C(=O)O)n(Cc3cccc(OCC4CC4)c3)c3ccccc23)cc1 [Example 287]
21 | 0.1 to 9.99 | 120 °C | CC(C)(C)c1ccc(-c2c(C(=O)O)n(Cc3cccc(OCC4CC4)c3)c3ccccc23)cc1 [Example 288]
22 | 0.1 to 9.99 | 159 °C | CC(C)(C)c1ccc(-c2c(C(=O)O)n(Cc3cccc(OC4CCCC4)c3)c3ccccc23)cc1 [Example 289]
23 | 10 to 10000 | 110 °C (dec.) | COc1cccc(Cn2c(C(=O)O)c(-c3cccc(NC(=O)NC4CC4)c3)c3ccccc32)c1 [Example 294]
24 | 10 to 10000 | 200 °C | COc1cccc(Cn2c(C(=O)O)c(-c3cccc(N(C)C(=O)C4CC4)c3)c3ccccc32)c1 [Example 295]
25 | 0.1 to 9.99 | 168 to 170 °C | COc1ccc(Cc2c(C(=O)O)n(Cc3cccc(OCC4CC4)c3)c3ccccc23)cc1 [Example 297]
26 | 0.1 to 9.99 | 58 to 60 °C | Cc1cccc(-c2c(C(=O)O)n(Cc3cccc(OCC4CC4)c3)c3ccccc23)c1 [Example 299]
27 | 10 to 10000 | 190 °C (dec.) | COc1ccc(-c2c(C(=O)O)n(Cc3cccc(OC)c3)c3ccc(C(C)=O)cc23)cc1 [Example 301]
28 | 10 to 10000 | 210 °C (dec.) | COc1ccc(-c2c(C(=O)O)n(Cc3cccc(OC)c3)c3c(NC(=O)C4CC4)cccc23)cc1 [Example 302]
29 | 10 to 10000 | 237 °C | COc1cccc(Cn2c(C(=O)O)c(-c3ccc(C(=O)NC4CC4)cc3)c3ccccc32)c1 [Example 323, 3-[4-(N-cyclopropylcarbamoyl)phenyl]-1-[(3-methoxyphenyl)methyl]indole-2-carboxylic acid]
30 | 10 to 10000 | 230 °C | COc1cccc(Cn2c(C(=O)O)c(-c3ccc(C(=O)NC4CCCC4)cc3)c3ccccc32)c1 [Example 324]
31 | 10 to 10000 | 245 °C | COc1cccc(Cn2c(C(=O)O)c(-c3ccc(C(=O)NC4CCCCC4)cc3)c3ccccc32)c1 [Example 325]
32 | 10 to 10000 | 204 °C | COc1cccc(Cn2c(C(=O)O)c(-c3cccc(C(=O)NC4CC4)c3)c3ccccc32)c1 [Example 328]
33 | 10 to 10000 | 108 °C | COc1cccc(Cn2c(C(=O)O)c(-c3cccc(C(=O)NC4CCCC4)c3)c3ccccc32)c1 [Example 329]
34 | 0.1 to 9.99 | 197 to 198 °C | O=C(O)c1c(-c2ccc(OCC3CC3)cc2)c2ccccc2n1Cc1ccc(F)cc1 [Example 341]
35 | 0.1 to 9.99 | 147 to 148 °C | COc1cccc(Cn2c(C(=O)O)c(-c3cccc(OCC4CC4)c3)c3ccccc32)c1 [Example 345]
36 | 0.1 to 9.99 | 204 to 205 °C | O=C(O)c1c(-c2ccc(OCC3CC3)cc2)c2ccccc2n1Cc1cccc(OC(F)(F)F)c1 [Example 346]
37 | 10 to 10000 | 162 °C | COc1ccc(-c2c(C(=O)NS(=O)(=O)c3ccc(C)cc3)n(Cc3cccc(C(F)(F)F)c3)c3ccccc23)cc1 [Example 358]
38 | 0.1 to 9.99 | 166 °C | COc1ccc(-c2c(C(=O)NS(=O)(=O)c3ccc(Cl)cc3)n(Cc3cccc(C(F)(F)F)c3)c3ccccc23)cc1 [Example 359]
